These results are taken from ChEMBL document CHEMBL6153133, “Discovery of Diphenyl Ether Derivatives as Novel BKCa Channel Activators: Structure-Activity Relationship, Cryo-EM Complex Structures, and In Vivo Animal Studies” (J Med Chem, 2025).

Data set [1] deals with Calcium-activated potassium channel subunit alpha-1 (Homo sapiens), Q12791 [UNDEFINED MUTATION]. Description: Activation of hyperactive human BKca channel G803D/N806K mutant transfected in human AD-293 cells assessed as maximum relative fluorescence value at 5 uM preincubated for 15 mins followed by Tl+ stimulus buffer addition and measured after 80 sec by Flexstation3 multimode microplate reader analysis relative to control. Particulars: filed as opener, time 980.0 sec. It counts as cell-based.

For data set [2] the test system is unchanged. Description: Activation of hyperactive human BKca channel G803D/N806K mutant transfected in human AD-293 cells assessed as maximum relative fluorescence value at 1 uM preincubated for 15 mins followed by Tl+ stimulus buffer addition and measured after 80 sec by Flexstation3 multimode microplate reader analysis relative to control. The data set is classed as cell-based. Particulars: time 980.0 sec.

For data set [3], the system named is Rattus norvegicus. Description: Reversal of urinary incontinence in male spontaneous hypertensive rat model assessed as decrease in urine frequency at 20 to 40 mg/kg, po measured after 3 hrs. It counts as functional, organism-based. Particulars: dose 20-40 mg/kg.
In data set [4] the test system is Calcium-activated potassium channel subunit alpha-1 (Homo sapiens), Q12791 [UNDEFINED MUTATION]. Description: Activation of hyperactive human BKca channel G803D/N806K mutant transfected in human AD-293 cells at >2 uM preincubated for 15 mins followed by Tl+ stimulus buffer addition and measured after 80 sec in presence of paxilline by Flexstation3 multimode microplate reader analysis. It counts as cell-based. Conditions: filed as opener, time 980.0 sec.

Data set [5] deals with Rattus norvegicus. The data set is described as follows: Reversal of urinary incontinence in male spontaneous hypertensive rat model assessed as decrease in urine frequency at 10 to 50 mg/kg, po measured after 3 hrs. It counts as functional, organism-based. Particulars: dose 10-50 mg/kg.
Data set [6] concerns the target Calcium-activated potassium channel subunit alpha-1 (Homo sapiens, UniProt Q12791). The data set is described as follows: Activation of BKca channel (unknown origin) by patch-clamp method.
Data set [7] concerns the target Calcium-activated potassium channel subunit alpha-1 (Homo sapiens, UniProt Q12791, G803D/N806K). Description: Activation of hyperactive human BKca channel G803D/N806K mutant transfected in human AD-293 cells incubated for 15 mins by Flexstation3 multimode microplate reader analysis. The data set is classed as cell-based.
The subject of data set [8] is Calcium-activated potassium channel subunit alpha-1 (Homo sapiens), Q12791 [UNDEFINED MUTATION]. Description: Activation of hyperactive human BKca channel G803D/N806K mutant transfected in human AD-293 cells assessed as fold change in maximum relative fluorescence value at 5 uM preincubated for 15 mins followed by Tl+ stimulus buffer addition and measured after 80 sec by Flexstation3 multimode microplate reader analysis relative to 4-chloro-7-(trifluoromethyl)-10H-benzofuro[3,2-b]indole-1-carboxylic acid. It counts as cell-based. Conditions: filed as opener, time 980.0 sec.

Data set [9] deals with Oocyte. The data set is described as follows: Activation of rat BKca channel extracted from Xenopus laevis Oocytes assessed as left shift in G-V curve at 5 uM by patch-clamp electrophysiology recordings. It counts as cell-based. Conditions: filed as opener. Background: Patch clamp records ionic current or voltage across a cell membrane.
For data set [10], the system named is Calcium-activated potassium channel subunit alpha-1 (Homo sapiens), Q12791 [UNDEFINED MUTATION]. The data set is described as follows: Activation of hyperactive human BKca channel G803D/N806K mutant transfected in human AD-293 cells assessed as fold change in maximum relative fluorescence value at 5 uM preincubated for 15 mins followed by Tl+ stimulus buffer addition and measured after 80 sec by Flexstation3 multimode microplate reader analysis. The data set is classed as cell-based. Conditions: filed as opener, time 980.0 sec.

The nature of data set [11]: Metabolic stability in rat liver microsomes assessed as parent compound remaining at 1 uM preincubated for 5 mins followed by NADPH addition and measured after 30 mins by LC-MS/MS analysis. It counts as ADME, Microsome. Particulars: read-out: Stability. (In general: Liver microsomes are a subcellular fraction often used to study metabolism.)
Data set [12] is described as follows: Metabolic stability in human liver microsomes assessed as parent compound remaining at 1 uM preincubated for 5 mins followed by NADPH addition and measured after 30 mins by LC-MS/MS analysis. The data set is classed as ADME, Microsome. Particulars: read-out: Stability.
In data set [13] the test system is Oocyte. Description: Activation of wildtype rat BKca channel extracted from Xenopus laevis Oocytes assessed as negative shift in V1/2 at 5 uM at -100 mV holding potential by patch-clamp electrophysiology recordings. It counts as cell-based. Particulars: filed as opener.
Data set [14] deals with Oocyte. Description: Activation of […] rat BKca channel W22A mutant extracted from Xenopus laevis Oocytes assessed as negative shift in V1/2 at 5 uM at -100 mV holding potential by patch-clamp electrophysiology recordings. It counts as cell-based. Conditions: filed as opener.
In data set [15] the test system is Oocyte. The data set is described as follows: Activation of […] rat BKca channel S259A mutant extracted from Xenopus laevis Oocytes assessed as negative shift in V1/2 at 5 uM at -100 mV holding potential by patch-clamp electrophysiology recordings. It counts as cell-based. Particulars: filed as opener.
The subject of data set [16] is Oocyte. The data set is described as follows: Activation of […] rat BKca channel F266A mutant extracted from Xenopus laevis Oocytes assessed as negative shift in V1/2 at 5 uM at -100 mV holding potential by patch-clamp electrophysiology recordings. It counts as cell-based. Particulars: filed as opener.

The source made the active and inactive calls. The calls are words filed in the database; no cut-off is given here.

Sequence of Calcium-activated potassium channel subunit alpha-1 (Homo sapiens), Q12791 [UNDEFINED MUTATION] (Q12791 whole entry, looked up, stated change not applied): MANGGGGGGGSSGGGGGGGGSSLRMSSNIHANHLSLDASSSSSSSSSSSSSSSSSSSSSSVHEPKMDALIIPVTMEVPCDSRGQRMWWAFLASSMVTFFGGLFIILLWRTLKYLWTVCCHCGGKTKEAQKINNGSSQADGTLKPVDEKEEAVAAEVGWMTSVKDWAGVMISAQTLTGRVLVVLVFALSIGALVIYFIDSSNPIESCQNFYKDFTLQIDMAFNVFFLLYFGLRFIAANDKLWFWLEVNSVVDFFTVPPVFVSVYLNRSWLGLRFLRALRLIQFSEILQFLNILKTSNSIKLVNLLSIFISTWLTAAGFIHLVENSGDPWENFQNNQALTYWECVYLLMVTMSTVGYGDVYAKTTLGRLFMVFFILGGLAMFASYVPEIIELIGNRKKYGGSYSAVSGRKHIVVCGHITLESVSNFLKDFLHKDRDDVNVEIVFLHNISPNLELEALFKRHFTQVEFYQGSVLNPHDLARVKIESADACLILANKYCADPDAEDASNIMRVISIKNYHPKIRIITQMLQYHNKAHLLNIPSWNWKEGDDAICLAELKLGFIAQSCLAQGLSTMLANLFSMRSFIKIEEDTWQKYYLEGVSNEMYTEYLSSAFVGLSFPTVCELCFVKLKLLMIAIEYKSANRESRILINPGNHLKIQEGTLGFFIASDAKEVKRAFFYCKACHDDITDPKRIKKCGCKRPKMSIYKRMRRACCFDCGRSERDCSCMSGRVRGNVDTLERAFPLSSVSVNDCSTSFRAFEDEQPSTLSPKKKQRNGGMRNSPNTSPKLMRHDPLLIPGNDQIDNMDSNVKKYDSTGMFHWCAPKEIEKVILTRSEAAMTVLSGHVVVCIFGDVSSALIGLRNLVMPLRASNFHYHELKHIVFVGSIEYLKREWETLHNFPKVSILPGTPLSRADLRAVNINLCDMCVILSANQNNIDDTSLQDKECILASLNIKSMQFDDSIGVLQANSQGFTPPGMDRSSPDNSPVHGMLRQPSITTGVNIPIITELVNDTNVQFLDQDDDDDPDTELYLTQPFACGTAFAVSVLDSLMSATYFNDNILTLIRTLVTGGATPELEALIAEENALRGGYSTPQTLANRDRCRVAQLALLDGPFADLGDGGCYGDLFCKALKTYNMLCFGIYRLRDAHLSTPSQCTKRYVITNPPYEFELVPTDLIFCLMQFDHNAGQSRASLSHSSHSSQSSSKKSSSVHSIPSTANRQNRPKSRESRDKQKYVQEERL
Sequence of Calcium-activated potassium channel subunit alpha-1 (Homo sapiens, UniProt Q12791) (Q12791 whole entry): as the sequence (Q12791 whole entry, looked up, stated change not applied) above
Sequence of Calcium-activated potassium channel subunit alpha-1 (Homo sapiens, UniProt Q12791, G803D/N806K) (Q12791 whole entry, looked up, stated change not applied): as above

`COc1cc(N)ccc1Oc1c(F)c(F)c(C(F)(F)F)c(F)c1F`: the Activity in data set [1] was 107%; in data set [2], 31.8%. In addition, in the data set on Rattus norvegicus [3], the outcome was inactive.
For the compound `Nc1ccc(Oc2c(F)c(F)c(C(F)(F)F)c(F)c2F)c(O)c1`, the Activity in data set [1] and in data set [2] (filed as opener) was 100% in each case. Further, in [4], the outcome was Active. Also, the result in the data set with Rattus norvegicus [5] was inactive.
As usually defined, the EC50 is the midpoint of the concentration-response curve. Consider `O=c1[nH]c2cc(C(F)(F)F)ccc2n1-c1cc(C(F)(F)F)ccc1O`, for which the concentration giving a half-maximal response (EC50) in [6] is 10 µM.
Regarding `Oc1ccc(Oc2c(F)c(F)c(Cl)c(F)c2F)c(O)c1`, the Activity in data set [1] worked out at 100%; in data set [2] (filed as opener), 41.6%. Also, the EC50 in data set [7] was determined as 1580 nM. Moreover, the fold change (FC) was 2.5 in data set [8] and 9.7 in data set [10]. Moreover, in the data set with Oocyte [9], the outcome was Active. For the same compound, the remaining at 0.5 h, 1 µM was 35.9% in data set [11] and 83.6% in data set [12].
Consider `Oc1cc(NCCCCCN2CCOCC2)ccc1Oc1c(F)c(F)c(C(F)(F)F)c(F)c1F`, for which the Activity in data set [1] worked out at 81.3%; with Oocyte [13] it was 86.2 mV; in the data set on Oocyte [14] it was 24 mV; with Oocyte [15] it was 23.5 mV; in the data set with Oocyte [16], 37.9 mV.
